Paper PMC8763382, “2-Sulfonylpyrimidines as Privileged Warheads for the Development of S. aureus Sortase A Inhibitors” (Frontiers in Molecular Biosciences, 2022)
Values joined by “and” are separate entries in the source; they are usually repeats but may differ in a detail not shown here. Equal values may be shown once.

Legend:
S. aureus SrtA = target: T1, S. aureus SrtA (Staphylococcus aureus, UniProt Q2FV99); test: fluorometric enzyme assay of SrtA transpeptidation (Abz-LPETG-Dap(Dnp)-OH substrate); type: biochemical; conditions: for k inact: maximum inactivation rate; for k inact / KI (inactivation) / k 2nd: Tris pH 7.50, n. i. = <20% inhibition at 100 µM; for KI (inactivation): read-out: KI, dissociation constant of the reversible enzyme-inhibitor complex; for k 2nd: second-order rate of inhibition; for SrtA inhibition (in words): fluorometric enzyme assay, inhibitor concentration 100 µM
T1 construct: His tag (inferred from IMAC on a HisTrap column); made in house; host or cells: E. coli BL21 Gold (DE3)
T1 sequence (Q2FV99 60-206): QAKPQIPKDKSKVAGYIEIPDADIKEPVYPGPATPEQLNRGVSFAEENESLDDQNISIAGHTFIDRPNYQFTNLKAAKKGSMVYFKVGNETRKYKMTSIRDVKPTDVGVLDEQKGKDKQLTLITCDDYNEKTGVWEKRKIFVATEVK
Procedure: To evaluate the inhibition potency of the parent sulfonylpyrimidine 4, this compound was tested by means of a fluorometric enzyme assay with recombinantly expressed S. aureus SrtA ([Schmohl et al., 2017b]) and Abz-LPETG-Dap (Dnp)-OH as substrate. […] To verify the irreversible mode of inhibition, we determined the maximum inactivation rate k inact, the dissociation constant of the reversible enzyme-inhibitor complex KI, and the second-order rate of inhibition k 2nd. For compound 4, a k inact = 0.00065 s^−1 was found, which is very low compared to other covalent SrtA inhibitors ([Chan et al., 2017]; [Barthels et al., 2020]; [Jaudzems et al., 2020]).
Inhibition assays of S. aureus SrtA transpeptidation reactions were performed as described previously ([Barthels et al., 2020]). Briefly, the recombinantly expressed SrtA (final concentration: 1 µM) was incubated in assay buffer (50 mM Tris, 150 mM NaCl, 5 mM CaCl2, pH 7.50) with 25 µM of the FRET-pair substrate Abz-LPETG-Dap (Dnp)-OH (Genscript, Piscataway, New Jersey) and 0.5 mM tetraglycine (Sigma Aldrich, St. Louis, Missouri). Inhibitors were added from DMSO stocks. Reactions were initiated by addition of SrtA and monitored for 30 min at 30°C in an Infinite M200 Pro plate reader with λex 320 nm/λem 430 nm (Tecan, Männedorf, Switzerland). Three technical replicates were carried out for each inhibitor in black flat-bottom 96-well plates (Greiner bio-one, Kremsmünster, Austria). The enzyme kinetics of irreversible SrtA inactivation were analyzed as described previously ([Barthels et al., 2020]).

[1] = target: human protease urokinase plasminogen activator (uPA) (Homo sapiens, UniProt P00749); test: protease selectivity panel, fluorometric assay urokinase plasminogen activator; type: biochemical; conditions: 100 µM inhibitor; n. i. = no inhibition at 100 µM; read-out: uPA inhibition relative to the DMSO control
Procedure: (§1) To investigate how these sulfonylpyrimidines affect the activity of other cysteine and serine proteases, a selectivity panel was constructed from a matrix of 6 diverse sulfonylpyrimidines and 6 different proteases. The compounds were assayed at a final compound concentration of 100 µM for the cysteine proteases human cathepsin B (hCatB), cathepsin L (hCatL), and T. brucei rhodesain (Rd). Furthermore, the serine proteases NS2B-NS3 from Zika virus (ZIKV), the homologous protease from Dengue virus (DENV), and the human protease urokinase plasminogen activator (uPA) were tested for their susceptibility.
(§2) Fluorometric assays of the ZIKV/DENV NS2B/NS3 protease were performed as described previously ([Maus et al., 2021]). The assay was carried out in triplicates at 25°C in assay buffer (50 mM Tris, pH 9.0, 20% glycerol (v/v), and 1 mM CHAPS). 100 µM Boc-Gly-Arg-Arg-AMC (Bachem, Bubendorf, Switzerland) was used as a substrate. Fluorometric assays for cathepsin B, cathepsin L, and rhodesain (Calbiochem, Merck Millipore, Burlington, Massachusetts) were performed as described previously ([Klein et al., 2020a]). Cbz-Phe-Arg-AMC (Bachem, Bubendorf, Switzerland) was used as substrate (100 μM for cathepsin B, 6.5 μM for cathepsin L, and 10 µM for rhodesain). Fluorometric assays for urokinase plasminogen activator were performed as described previously ([Angelini et al., 2012]). 240 µM Cbz-Gly-Arg-Arg-AMC (Bachem, Bubendorf, Switzerland) was used as a substrate.

cathepsin L (hCatL) = target: T2, cathepsin L (hCatL) (Homo sapiens, UniProt P07711); test: protease selectivity panel, fluorometric assay cathepsin L; type: biochemical; conditions: 100 µM inhibitor; read-out: CatL inhibition relative to the DMSO control
T2 construct: purchased Calbiochem, Merck Millipore
T2 sequence (P07711 114-333): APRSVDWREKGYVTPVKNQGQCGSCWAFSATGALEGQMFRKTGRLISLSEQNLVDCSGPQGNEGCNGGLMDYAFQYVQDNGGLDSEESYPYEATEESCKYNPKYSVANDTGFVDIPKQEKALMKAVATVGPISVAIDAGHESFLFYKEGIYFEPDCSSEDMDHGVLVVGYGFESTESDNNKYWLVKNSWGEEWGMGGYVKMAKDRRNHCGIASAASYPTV
Procedure: as §1, §2

DENV NS2B/NS3 protease = DENV NS2B/NS3 protease (Dengue virus type 2, UniProt P29990); test: protease selectivity panel, fluorometric assay DENV NS2B/NS3 protease; type: biochemical; conditions: 100 µM inhibitor; n. i. = no inhibition at 100 µM; read-out: DENV inhibition relative to the DMSO control
DENV NS2B/NS3 protease, sequence (P29990 1398-1437): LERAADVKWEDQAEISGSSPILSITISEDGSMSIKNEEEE
DENV NS2B/NS3 protease, sequence (P29990 1476-1653): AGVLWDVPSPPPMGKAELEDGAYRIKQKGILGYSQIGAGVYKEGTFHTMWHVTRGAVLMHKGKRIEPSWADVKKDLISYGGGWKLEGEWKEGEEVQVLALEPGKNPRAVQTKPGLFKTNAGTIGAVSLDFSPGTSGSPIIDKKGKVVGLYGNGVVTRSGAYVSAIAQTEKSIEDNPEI
Procedure: as §1, §2

[2] = target: T3, human cathepsin B (hCatB) (Homo sapiens, UniProt P07858); test: protease selectivity panel, fluorometric assay cathepsin B; type: biochemical; conditions: 100 µM inhibitor; read-out: CatB inhibition relative to the DMSO control
T3 construct: purchased Calbiochem, Merck Millipore
Procedure: as §1, §2

T. brucei rhodesain (Rd) = target: T4, T. brucei rhodesain (Rd) (Trypanosoma brucei rhodesiense, UniProt Q95PM0); test: protease selectivity panel, fluorometric assay rhodesain; type: biochemical; conditions: 100 µM inhibitor; n. i. = no inhibition at 100 µM; read-out: Rd inhibition relative to the DMSO control
T4 construct: purchased Calbiochem, Merck Millipore
T4 sequence (Q95PM0 entry or part of it): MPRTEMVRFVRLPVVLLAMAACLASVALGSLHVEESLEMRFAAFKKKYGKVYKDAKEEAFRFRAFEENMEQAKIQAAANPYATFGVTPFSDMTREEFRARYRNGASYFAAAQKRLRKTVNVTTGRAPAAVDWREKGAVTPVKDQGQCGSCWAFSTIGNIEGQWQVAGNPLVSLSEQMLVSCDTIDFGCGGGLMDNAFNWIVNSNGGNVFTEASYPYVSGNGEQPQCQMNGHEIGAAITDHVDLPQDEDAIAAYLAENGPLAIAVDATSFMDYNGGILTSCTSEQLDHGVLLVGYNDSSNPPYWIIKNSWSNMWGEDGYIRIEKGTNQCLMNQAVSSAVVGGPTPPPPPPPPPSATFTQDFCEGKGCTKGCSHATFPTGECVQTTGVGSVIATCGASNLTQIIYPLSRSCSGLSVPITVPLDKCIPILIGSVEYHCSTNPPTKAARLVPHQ
Procedure: as §1, §2

[3] = target: T5, NS2B-NS3 from Zika virus (ZIKV) (Zika virus, UniProt Q32ZE1); test: protease selectivity panel, fluorometric assay ZIKV NS2B/NS3 protease; type: biochemical; conditions: 100 µM inhibitor; read-out: ZIKV inhibition relative to the DMSO control
T5 construct: The ZIKV NS2B/NS3 protease is a serine protease and contains two non-catalytic cysteine residues
T5 sequence (Q32ZE1 1499-1676): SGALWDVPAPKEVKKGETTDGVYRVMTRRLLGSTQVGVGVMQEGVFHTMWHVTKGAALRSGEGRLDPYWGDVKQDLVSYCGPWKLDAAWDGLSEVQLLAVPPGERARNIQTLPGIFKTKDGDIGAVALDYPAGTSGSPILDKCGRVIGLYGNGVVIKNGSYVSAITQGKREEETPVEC
T5 sequence (Q32ZE1 1421-1460): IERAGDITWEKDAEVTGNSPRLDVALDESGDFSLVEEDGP
Procedure: as §1, §2

[4] = cysteine reactivity assay (competitive fluorescence assay with probe 8); type: physicochemical; conditions: phosphate buffer (1×PBS) pH 7.5
Source text: In order to study the kinetics of sulfonylpyrimidines reacting with free cysteine in solution, a strategy for a competitive fluorescence-based assay was adapted from previous works ([Epps and Taylor, 2001]; [Sameshima et al., 2017]). […] The reaction of probe 8 with cysteine liberates 4-methylumbelliferone as a fluorometrically detectable product (Figure 7A), and thus, the fluorescence increase can be described by the second-order rate constant k probe (Equation 1).
Upon the addition of competitive and irreversible cysteine modifiers such as sulfonylpyrimidines, the fluorescence increase of the probe reaction was hyperbolically attenuated (Figure 7B). According to the conceptual deduction described previously ([Epps and Taylor, 2001]; [Sameshima et al., 2017]), the experimental fluorescence curves can be analyzed by nonlinear regression as first-order reaction progress curves (Equation 2). The parameter k obs describes the curvature corresponding to the sum of the competing kinetics (Equation 3). Under the assumptions that 1) the competitive reaction between sulfonylpyrimidines vs. probe with cysteine is started by simultaneous addition, and 2) sulfonylpyrimidines are added at a much higher concentration than cysteine (5 µM) and the probe (5 µM), the k obs values depend substantially on the k chem value. The compound-specific second-order inactivation parameter k chem can be determined by linear regression from the k obs values of the dilution series (Equation 4). d[FL]/dt=kprobe[Cys][probe] (1) FL=[Cys]total⋅kprobe [probe]/kprobe [probe] + kchem [sulfonylpyrimidine](1−e^−kobs⋅t) (2) kobs=kchem [sulfonylpyrimidine]+kprobe [probe] (3) kchem=kobs/[sulfonylpyrimidine] (4)
Kinetic characterization of the reaction between sulfonylpyrimidines and cysteine was performed in degassed phosphate buffer (1×PBS, pH 7.5) or individual cases in bicarbonate buffer (20 mM NaHCO3, 100 mM NaCl, pH 7.5). Three technical replicates were carried out for each sulfonylpyrimidine in black flat-bottom 96-well plates. For this purpose, 50 µL buffered solution (including 5% (v/v) DMSO) of the respective sulfonylpyrimidine derivative (final: 250–3 µM) and the cysteine reactive probe 8 (final: 5 µM) were premixed. Reactions were initiated by the addition of 50 µL cysteine (final: 5 µM), dissolved in the respective buffer, and monitored for 30 min at 30°C in an Infinite M200 Pro plate reader with λex 380 nm/λem 460 nm. To calculate k obs and k chem values, fluorescence curves were fitted using the same non-linear regression as for in vitro inhibition of SrtA ([Barthels et al., 2020]).

Compound	k inact (S. aureus SrtA)	k 2nd (S. aureus SrtA)	melting point [°C]	SrtA inhibition (in words) (S. aureus SrtA)	other results
CS(=O)(=O)c1ncc(Cl)c(C(=O)NCC(=O)Nc2cccc(Oc3ccccc3)c2)n1 [Compound 5b]	0.00082 ± 0.00004 s⁻¹	1,175 M^−1min^−1 and 1,175 ± 67 M^−1min^−1	91		KI (inactivation) (S. aureus SrtA): 42.4 ± 4.62 µM
CS(=O)(=O)c1ncc(Cl)c(C(=O)Nc2ccc(-c3ccc(C#N)cc3)cc2)n1 [Compound 5d]	n. i.	n. i.	267		
CS(=O)(=O)c1ncc(Cl)c(C(=O)Nc2ccc3[nH]ncc3c2)n1 [Compound 5f]	n. i.	n. i.	231		
Cc1ccc(-c2csc(NC(=O)c3nc(S(C)(=O)=O)ncc3Cl)n2)cc1 [Compound 5g]	n. i.	n. i.	280		
CS(=O)(=O)c1ncc(Cl)c(C(=O)N2CCc3ccccc3C2)n1 [Compound 5h]	n. i.	n. i.	218		
CCC(CC)NC(=O)c1nc(S(C)(=O)=O)ncc1Cl [Compound 5i]	n. i.	n. i.	146		
CS(=O)(=O)c1ncc(Cl)c(C(=O)N(Cc2ccccc2)Cc2ccccc2)n1 [Compound 5k]	n. i.	n. i.	68		
CS(=O)(=O)c1ncc(Cl)c(C(=O)Nc2cccc(Sc3ccccc3)c2)n1 [Compound 6b]	0.00578 ± 0.00033 s⁻¹	7,305 ± 294 M^−1min^−1	135		KI (inactivation) (S. aureus SrtA): 47.5 ± 4.62 µM
CS(=O)(=O)c1ncc(Cl)c(C(=O)Nc2cccc(OC3CCCCC3)c2)n1 [Compound 6c]	0.00864 ± 0.00092 s⁻¹	6,593 M^−1min^−1 and 6,593 ± 243 M^−1min^−1	144		KI (inactivation) (S. aureus SrtA): 78.8 ± 9.92 µM
CS(=O)(=O)c1ncc(Cl)c(C(=O)Nc2cccc(Cc3ccccc3)c2)n1 [Compound 6d]	0.00618 ± 0.00025 s⁻¹	6,181 ± 489 M^−1min^−1	148		KI (inactivation) (S. aureus SrtA): 60.3 ± 6.4 µM
COc1cccc(NC(=O)c2nc(S(C)(=O)=O)ncc2Cl)c1 [Compound 6e]		882 M⁻¹ min⁻¹ and 882 ± 43 M⁻¹ min⁻¹			Ki (S. aureus SrtA): > 100 µM
CS(=O)(=O)c1ncc(Cl)c(C(=O)Nc2cccc(-c3ccccc3)c2)n1 [Compound 6f]		588 M⁻¹ min⁻¹ and 588 ± 48 M⁻¹ min⁻¹	164		Ki (S. aureus SrtA): > 100 µM
CS(=O)(=O)c1ncc(Cl)c(C(=O)Nc2ccccc2Oc2ccccc2)n1 [Compound 6g]			177	complete abolition of inhibition	inhibition at 100 µM [1]: 67%; inhibition at 100 µM (cathepsin L (hCatL)): 29.4%; inhibition at 100 µM (DENV NS2B/NS3 protease): 2.6%; inhibition at 100 µM (S. aureus SrtA; read-out: SrtA inhibition relative to the DMSO control): 21.8%; inhibition at 100 µM [2]: 11.8%; inhibition at 100 µM (T. brucei rhodesain (Rd)): 15%; inhibition at 100 µM [3]: 18.3%
CS(=O)(=O)c1ncc(Cl)c(C(=O)Nc2ccc(Oc3ccccc3)cc2)n1 [Compound 6h]	n. i.	n. i.	195	complete abolition of inhibition	
CS(=O)(=O)c1ncc(Cl)c(C(=O)Nc2cccc(OCc3ccccc3)c2)n1 [Compound 6k]	n. i.	n. i.	154	inhibition was completely abolished	
CS(=O)(=O)c1ncc(Cl)c(C(=O)Nc2ccc3c(c2)oc2ccccc23)n1 [Compound 6l]	n. i.	n. i.	250	complete loss of inhibition	
CS(=O)(=O)c1ncc(Cl)c(C(=O)Nc2cccc(C(=O)Nc3ccccc3)c2)n1 [Compound 6m]	n. i.	n. i.	237	inhibition was completely abolished	
CS(=O)(=O)c1ncc(Cl)c(C(=O)NCCSc2ccccc2)n1 [Compound 6n]	n. i.	n. i.		complete loss of inhibition	
Cc1cnc(S(C)(=O)=O)nc1C(=O)Nc1cccc(Oc2ccccc2)c1 [Compound 7d]		1,204 ± 139 M^−1min^−1	164		S. I. (k 2nd/k chem) (S. aureus SrtA; SrtA k 2nd over cysteine k chem): 196; Cysteine k chem [4]: 6.14 ± 1.71 M⁻¹ min⁻¹
